The experiment concerns the target T1, TXA2 synthetase (human platelet microsomes) (Homo sapiens, UniProt P24557).
T1 construct: human platelet microsomes (HPM); from tissue; host or cells: human platelets (microsomes)
T1 sequence (P24557 1-533): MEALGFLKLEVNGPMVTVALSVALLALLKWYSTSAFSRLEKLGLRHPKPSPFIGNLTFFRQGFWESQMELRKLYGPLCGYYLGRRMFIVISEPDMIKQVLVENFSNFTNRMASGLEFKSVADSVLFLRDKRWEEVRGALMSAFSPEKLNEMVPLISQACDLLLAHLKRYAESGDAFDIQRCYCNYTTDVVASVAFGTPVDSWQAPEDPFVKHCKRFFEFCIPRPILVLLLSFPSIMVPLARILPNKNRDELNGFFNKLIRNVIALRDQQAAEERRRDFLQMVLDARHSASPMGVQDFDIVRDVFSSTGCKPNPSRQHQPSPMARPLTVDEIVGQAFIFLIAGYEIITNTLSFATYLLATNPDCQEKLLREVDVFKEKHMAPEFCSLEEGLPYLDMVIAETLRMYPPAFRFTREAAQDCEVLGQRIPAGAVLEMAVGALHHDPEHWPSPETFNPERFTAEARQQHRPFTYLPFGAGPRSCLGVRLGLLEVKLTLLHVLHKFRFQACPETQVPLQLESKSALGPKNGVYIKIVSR
The experiment can be described thus: TXA2 inhibition test: TXA2 generated from PGH2 with human platelet microsomes, response of superfused rabbit aortic strips. Format: biochemical. The conditions noted are these: human platelet microsomes + PGH2, rabbit aorta bioassay. As for the experimental part: The compounds of the present invention were tested for TXA2 inhibition as follows:
Rabbit aortic strips were superfused in series with Krebs solution. Thromboxane A2 (TXA2) was generated by mixing prostaglandin H2 (PGH2) with human platelet microsomes (HPM).
Potential inhibitors were tested by comparing the response of the rabbit aorta to the amount of TXA2 produced by mixing PGH2 and HPM without the test compound in the reaction medium and then the amount of TXA2 produced when the test compound was added to the HPM 5 minutes before the HPM was mixed with PGH2. […] For a discussion of TXA2 synthetase inhibition testing see, e.g., R. Gorman, supra.

SMILES strings stand for the structures. Structures can show the parent of a compound that is named as a salt.

The values that follow come from patent US4452986A, “Imidazolyl-substituted benzofurans” (The Upjohn Company, priority 1982, dated 1984).

For the compound `O=C(O)c1cc2cc(Cn3ccnc3)ccc2o1` [Example 3, 5-N-Imidazolylmethyl-benzofuran-2-carboxylic Acid, Sodium Salt], the “effectiveness in inhibiting TXA2 formation (rank among tested compounds)” value is given as “most effective”.
